Experimental data from patent publication US12539292B2, “BRM targeting compounds and associated methods of use” (Arvinas Operations, Inc., priority 2018, dated 2026).
Read-outs that look alike come from different tables or passages of the source.

Target: T1, BRM (Homo sapiens, UniProt P51531)
T1 construct: In-Cell Western Screen of BRM Degradation in SW1573 Cells; endogenous in cells; host or cells: SW1573
Experiment: In-cell Western screen of BRM degradation in SW1573 cells (Dmax and DC50)
Format: cell-based
Summary of the method: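 Overnight compound treatment (18-20 h, final DMSO 0.1%) of SW1573 cells in DMEM with 10% FBS precedes fixation and in-cell Western staining with 800/680 nm dye-labelled secondaries. Plate images give DC50 and maximal degradation.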

[1] = target protein degradation, read-out: BRM DC50
[2] = SW1573, % degraded, when tested at the top concentration of between 0.3 and 10 μM, read-out: BRM Dmax (%)
[3] = degradation of BRM, read-out: BRM DC50
[4] = BRM degradation, SW1573 cells, read-out: DC50
[5] = BRM degradation, SW1573 cells, when tested at the top concentration of between 0.3 and 10 μM, read-out: Dmax (%) (% degraded)
[6] = BRM degradation, SW1573 cells, tested at the top concentration of between 0.3 and 10 μM, read-out: Dmax (%) (% degraded)

T1 sequence (P51531 whole entry): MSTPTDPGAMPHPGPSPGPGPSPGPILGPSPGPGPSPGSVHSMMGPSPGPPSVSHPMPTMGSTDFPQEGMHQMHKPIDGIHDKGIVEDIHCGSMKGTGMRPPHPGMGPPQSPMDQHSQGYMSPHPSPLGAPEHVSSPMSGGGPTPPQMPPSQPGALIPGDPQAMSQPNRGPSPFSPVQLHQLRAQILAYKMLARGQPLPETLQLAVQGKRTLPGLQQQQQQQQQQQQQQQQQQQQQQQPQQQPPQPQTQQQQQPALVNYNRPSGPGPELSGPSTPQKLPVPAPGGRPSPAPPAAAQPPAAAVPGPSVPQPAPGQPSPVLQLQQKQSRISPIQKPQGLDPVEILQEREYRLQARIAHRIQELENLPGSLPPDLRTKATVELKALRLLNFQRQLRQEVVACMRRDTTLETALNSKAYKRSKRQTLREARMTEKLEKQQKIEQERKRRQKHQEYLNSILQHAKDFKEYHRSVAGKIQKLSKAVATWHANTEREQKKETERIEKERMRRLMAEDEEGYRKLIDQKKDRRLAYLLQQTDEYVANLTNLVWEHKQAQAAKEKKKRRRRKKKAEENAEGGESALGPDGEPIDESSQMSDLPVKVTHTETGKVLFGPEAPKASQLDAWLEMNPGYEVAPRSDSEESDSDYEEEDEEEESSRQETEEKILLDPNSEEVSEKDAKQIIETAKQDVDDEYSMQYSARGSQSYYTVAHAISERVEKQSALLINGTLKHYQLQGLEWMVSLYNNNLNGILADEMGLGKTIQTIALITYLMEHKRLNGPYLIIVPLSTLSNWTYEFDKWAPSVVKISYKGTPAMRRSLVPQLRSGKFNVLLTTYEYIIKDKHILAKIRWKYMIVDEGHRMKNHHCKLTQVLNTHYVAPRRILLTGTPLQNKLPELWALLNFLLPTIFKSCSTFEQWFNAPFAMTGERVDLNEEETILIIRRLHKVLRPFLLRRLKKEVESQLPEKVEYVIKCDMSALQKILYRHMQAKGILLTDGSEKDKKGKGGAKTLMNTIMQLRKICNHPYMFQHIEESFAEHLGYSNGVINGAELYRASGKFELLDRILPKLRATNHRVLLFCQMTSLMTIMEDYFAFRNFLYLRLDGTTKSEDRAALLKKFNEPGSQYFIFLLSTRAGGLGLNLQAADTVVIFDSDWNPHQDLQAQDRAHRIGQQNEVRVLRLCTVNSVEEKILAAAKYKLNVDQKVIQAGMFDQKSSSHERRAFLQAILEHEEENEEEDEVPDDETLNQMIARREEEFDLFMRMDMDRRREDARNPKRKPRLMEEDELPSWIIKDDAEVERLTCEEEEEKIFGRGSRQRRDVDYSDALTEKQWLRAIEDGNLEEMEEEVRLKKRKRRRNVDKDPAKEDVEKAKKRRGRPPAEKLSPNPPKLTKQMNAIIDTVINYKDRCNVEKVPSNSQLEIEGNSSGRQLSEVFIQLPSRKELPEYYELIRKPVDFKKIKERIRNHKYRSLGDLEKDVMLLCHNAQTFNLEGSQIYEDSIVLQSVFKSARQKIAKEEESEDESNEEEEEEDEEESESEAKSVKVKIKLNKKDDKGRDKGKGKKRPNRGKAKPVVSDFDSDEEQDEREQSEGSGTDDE

Structure (SMILES) | DC50 [1] [nM] | Dmax [2] [%] | DC50 [4] [nM] | also measured
Cc1ncsc1-c1ccc([C@H](C)NC(=O)[C@@H]2C[C@@H](O)CN2C(=O)[C@H](c2cc(OCC[C@H]3CC[C@H](O[C@H]4C[C@H](Oc5cc(N6C7CCC6CN(c6cc(-c8ccccc8O)nnc6N)C7)ccn5)C4)CC3)no2)C(C)C)cn1 [compound 485, (2S,4R)-1-((2S)-2-(3-(2-((1R,4S)-4-((1r,3S)-3-((4-(3-(3-amino-6-(2-hydroxyphenyl)pyridazin-4-yl)-3,8-diazabicyclo[3.2.1]octan-8-yl)pyridin-2-yl)oxy)cyclobutoxy)cyclohexyl)ethoxy)isoxazol-5-yl)-3-methylbutanoyl)-4-hydroxy-N-((S)-1-(6-(4-methylthiazol-5-yl)pyridin-3-yl)ethyl)pyrrolidine-2-carboxamide] | > 30 |  |  | 
Cc1ncsc1-c1ncc([C@H](C)NC(=O)[C@@H]2C[C@@H](O)CN2C(=O)[C@@H](c2cc(OCCN3CCC(O[C@H]4C[C@H](Oc5cc(N6C7CCC6CN(c6cc(-c8ccccc8O)nnc6N)C7)ccn5)C4)CC3)no2)C(C)C)cn1 [compound 430, (2S,4R)-1-((2R)-2-(3-(2-(4-((1r,3R)-3-((4-(3-(3-amino-6-(2-hydroxyphenyl)pyridazin-4-yl)-3,8-diazabicyclo[3.2.1]octan-8-yl)pyridin-2-yl)oxy)cyclobutoxy)piperidin-1-yl)ethoxy)isoxazol-5-yl)-3-methylbutanoyl)-4-hydroxy-N-((S)-1-(2-(4-methylthiazol-5-yl)pyrimidin-5-yl)ethyl)pyrrolidine-2-carboxamide] |  | > 75 |  | DC50 [3]: 2.5 to 10 nM
Cc1ncsc1-c1ccc(CNC(=O)[C@@H]2C[C@@H](O)CN2C(=O)[C@@H](NC(=O)CN2CCN(c3ccc(CCOCCCc4cc(N5C6CCC5CN(c5cc(-c7ccccc7O)nnc5N)C6)ccn4)cn3)CC2)C(C)(C)C)cc1 [compound 48, (2S,4R)-1-((2S)-2-(2-(4-(5-(2-(3-(4-(3-(3-amino-6-(2-hydroxyphenyl)pyridazin-4-yl)-3,8-diazabicyclo[3.2.1]octan-8-yl)pyridin-2-yl)propoxy)ethyl)pyridin-2-yl)piperazin-1-yl)acetamido)-3,3-dimethylbutanoyl)-4-hydroxy-N-(4-(4-methylthiazol-5-yl)benzyl)pyrrolidine-2-carboxamide] |  |  | > 30 | Dmax [5]: > 75%
Cc1ncsc1-c1ccc(CNC(=O)[C@@H]2C[C@@H](O)CN2C(=O)[C@H](C(C)C)N2Cc3ccccc3C2=O)c(OCCOCCOCCOCCn2cc(-c3cc(-c4ccccc4O)nnc3N)cn2)c1 [compound 12, (2S,4R)-N-(2-(2-(2-(2-(2-(4-(3-amino-6-(2-hydroxyphenyl)pyridazin-4-yl)-1H-pyrazol-1-yl)ethoxy)ethoxy)ethoxy)ethoxy)-4-(4-methylthiazol-5-yl)benzyl)-4-hydroxy-1-((S)-3-methyl-2-(1-oxoisoindolin-2-yl)butanoyl)pyrrolidine-2-carboxamide] |  |  | > 30 | Dmax [5]: 50 to 75%
Cc1ncsc1-c1ccc([C@H](C)NC(=O)[C@@H]2C[C@@H](O)CN2C(=O)[C@H](c2cc(OCCC3CCN(C(=O)[C@H]4C[C@H](CN5CCC([C@H](C)n6cc(-c7cc(-c8ccccc8O)nnc7N)cn6)CC5)C4)CC3)no2)C(C)C)cc1 [compound 453, (2S,4R)-1-((S)-2-(3-(2-(1-((1S,3S)-3-((4-((S)-1-(4-(3-amino-6-(2-hydroxyphenyl)pyridazin-4-yl)-1H-pyrazol-1-yl)ethyl)piperidin-1-yl)methyl)cyclobutane-1-carbonyl)piperidin-4-yl)ethoxy)isoxazol-5-yl)-3-methylbutanoyl)-4-hydroxy-N-((S)-1-(4-(4-methylthiazol-5-yl)phenyl)ethyl)pyrrolidine-2-carboxamide] | < 2.5 | > 75 |  | 
Cc1ncsc1-c1ccc([C@H](C)NC(=O)[C@@H]2C[C@@H](O)CN2C(=O)[C@@H](c2cc(OCCN[C@H]3CC[C@H](O[C@H]4C[C@H](Oc5cc(N6C7CCC6CN(c6cc(-c8ccccc8O)nnc6N)C7)ccn5)C4)CC3)no2)C(C)C)cn1 [compound 396, (2S,4R)-1-((2R)-2-(3-(2-(((1R,4R)-4-((1r,3R)-3-((4-(3-(3-amino-6-(2-hydroxyphenyl)pyridazin-4-yl)-3,8-diazabicyclo[3.2.1]octan-8-yl)pyridin-2-yl)oxy)cyclobutoxy)cyclohexyl)amino)ethoxy)isoxazol-5-yl)-3-methylbutanoyl)-4-hydroxy-N-((S)-1-(6-(4-methylthiazol-5-yl)pyridin-3-yl)ethyl)pyrrolidine-2-carboxamide] | 2.5 to 10 | > 75 |  | 
Cc1ncoc1-c1ccc([C@H](C)NC(=O)[C@@H]2C[C@@H](O)CN2C(=O)[C@@H](c2cc(N3CCC(CN4CCC(O[C@H]5C[C@H](Oc6cc(N7C8CCC7CN(c7cc(-c9ccccc9O)nnc7N)C8)ccn6)C5)CC4)CC3)no2)C(C)C)cc1 [compound 674, (2S,4R)-1-((2R)-2-(3-(4-((4-((1r,3r)-3-((4-(3-(3-amino-6-(2-hydroxyphenyl)pyridazin-4-yl)-3,8-diazabicyclo[3.2.1]octan-8-yl)pyridin-2-yl)oxy)cyclobutoxy)piperidin-1-yl)methyl)piperidin-1-yl)isoxazol-5-yl)-3-methylbutanoyl)-4-hydroxy-N-((S)-1-(4-(4-methyloxazol-5-yl)phenyl)ethyl)pyrrolidine-2-carboxamide] |  |  | < 2.5 | Dmax (BRM degradation, SW1573 cells, read-out: Dmax (% degraded)): > 75%
Cc1ncsc1-c1ccc([C@H](CO)NC(=O)[C@@H]2C[C@@H](O)CN2C(=O)[C@H](c2cc(OCCN3CCC(O[C@H]4C[C@H](Oc5cc(N6C7CCC6CN(c6cc(-c8ccccc8O)nnc6N)C7)ccn5)C4)CC3)no2)C(C)C)cc1 [compound 200, (2S,4R)-1-((2S)-2-(3-(2-(4-((1r,3S)-3-((4-(3-(3-amino-6-(2-hydroxyphenyl)pyridazin-4-yl)-3,8-diazabicyclo[3.2.1]octan-8-yl)pyridin-2-yl)oxy)cyclobutoxy)piperidin-1-yl)ethoxy)isoxazol-5-yl)-3-methylbutanoyl)-4-hydroxy-N-((R)-2-hydroxy-1-(4-(4-methylthiazol-5-yl)phenyl)ethyl)pyrrolidine-2-carboxamide] |  |  | 2.5 to 10 | Dmax [6]: > 75%
Cc1ncsc1-c1ccc([C@H](C)NC(=O)[C@@H]2C[C@@H](O)CN2C(=O)[C@@H](c2cc(OCCC3CCN(C(=O)[C@H]4C[C@@H](CN5CCC([C@@H](C)n6cc(-c7cc(-c8ccccc8O)nnc7N)cn6)CC5)C4)CC3)no2)C(C)C)cc1 [compound 452, (2S,4R)-1-((R)-2-(3-(2-(1-((1S,3S)-3-((4-((R)-1-(4-(3-amino-6-(2-hydroxyphenyl)pyridazin-4-yl)-1H-pyrazol-1-yl)ethyl)piperidin-1-yl)methyl)cyclobutane-1-carbonyl)piperidin-4-yl)ethoxy)isoxazol-5-yl)-3-methylbutanoyl)-4-hydroxy-N-((S)-1-(4-(4-methylthiazol-5-yl)phenyl)ethyl)pyrrolidine-2-carboxamide] | 10 to 30 | > 75 |  | 
Cc1ncsc1-c1ccc([C@H](C)NC(=O)[C@@H]2C[C@@H](O)CN2C(=O)[C@@H](c2cc(OCCCC#Cc3ccc(O[C@H]4C[C@H](Oc5cc(N6C7CCC6CN(c6cc(-c8ccccc8O)nnc6N)C7)ccn5)C4)cn3)no2)C(C)C)cc1 [compound 250, (2S,4R)-1-((2R)-2-(3-((5-(5-((1r,3r)-3-((4-(3-(3-amino-6-(2-hydroxyphenyl)pyridazin-4-yl)-3,8-diazabicyclo[3.2.1]octan-8-yl)pyridin-2-yl)oxy)cyclobutoxy)pyridin-2-yl)pent-4-yn-1-yl)oxy)isoxazol-5-yl)-3-methylbutanoyl)-4-hydroxy-N-((S)-1-(4-(4-methylthiazol-5-yl)phenyl)ethyl)pyrrolidine-2-carboxamide] |  |  | < 2.5 | Dmax [6]: > 75%
Cc1ncsc1-c1ccc([C@@H](NC(=O)[C@@H]2C[C@@H](O)CN2C(=O)[C@H](c2cc(OCCN3CCC(O[C@H]4C[C@H](Oc5cc(N6C7CCC6CN(c6cc(-c8ccccc8O)nnc6N)C7)ccn5)C4)CC3)no2)C(C)C)C(=O)N(C)C2CCC2)cc1 [compound 423, (2S,4R)-1-((2S)-2-(3-(2-(4-((1r,3S)-3-((4-(3-(3-amino-6-(2-hydroxyphenyl)pyridazin-4-yl)-3,8-diazabicyclo[3.2.1]octan-8-yl)pyridin-2-yl)oxy)cyclobutoxy)piperidin-1-yl)ethoxy)isoxazol-5-yl)-3-methylbutanoyl)-N-((R)-2-(cyclobutyl(methyl)amino)-1-(4-(4-methylthiazol-5-yl)phenyl)-2-oxoethyl)-4-hydroxypyrrolidine-2-carboxamide] |  |  |  | DC50 [3]: > 30 nM
Cc1ncsc1-c1ccc(CNC(=O)[C@@H]2C[C@@H](O)CN2C(=O)[C@@H](NC(=O)COCCOCCOCCOc2cccc(N3C[C@H]4C[C@@H]3CN4c3cc(-c4ccccc4O)nnc3N)n2)C(C)(C)C)cc1 [compound 32, (2S,4R)-1-[(2S)-2-(1-[6-[(1R,4R)-5-[3-amino-6-(2-hydroxyphenyl)pyridazin-4-yl]-2,5-diazabicyclo[2.2.1]heptan-2-yl]pyridin-2-yl]-1,4,7,10-tetraoxadodecan-12-amido)-3,3-dimethylbutanoyl]-4-hydroxy-N-[[4-(4-methyl-1,3-thiazol-5-yl)phenyl]methyl]pyrrolidine-2-carboxamide] |  |  | > 30 | Dmax [5]: > 75%
